Test system: rat platelet rich plasma (PRP)
Assay: vWF-dependent platelet aggregation assay in rat platelet rich plasma
Type: cell-based
Conditions: ristocetin up to 5.0 mg/ml, no additional agent
Method: This is a standardized von Willebrand Factor (vWF)-dependent aggregation assay using human or rat platelet rich plasma (PRP). The addition of various concentrations of unfractionated Bothrops jararaca venom (BJV), which includes botrocetin and an additional thrombin-like component, or ristocetin results in an aggregatory response in the absence of any additional agent. Using ristocetin (1.5 mg/ml) as the agonist 43 μg/ml VCL abolished the aggregation of human PRP.

ristocetin
aggregation of rat PRP induced by the agonist: did not cause measurable aggregation

— patent US5849536A, “Cloning and production of human von willebrand factor GPIb binding domain polypeptides and methods of using same” (Bio-Technology General Corp., priority 1994, dated 1998)
